We go through 33 compounds from patent US20060223996A1, “IL-12 modulatory compounds” (Synta Pharmaceuticals Corp., priority 2004, published 2006).

The assay deals with IL-12. Kind of assay: Human in vitro assay: inhibition of IL-12 production in IFNγ/LPS- or IFNγ/SAC-stimulated human PBMC or THP-1 cells (ELISA). Type of assay: cell-based. As to conditions: read-out: IC50 Range (representative in vitro IC50 data). A digest of the protocol: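 Sandwich ELISA for IL-12 (p70, p40) on supernatants collected 18 h after stimulation gave IC50 values; MTS monitored viability. THP-1 cells: IFNγ 100 U/mL priming 22 h, SAC 0.025%. PBMC: IFNγ 30 U/mL for 22 h plus LPS 1 μg/mL, or IFNγ 100 U/mL plus SAC 0.01%. Final DMSO 0.25%.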
(In an ELISA, binding on a coated surface is turned into a signal by an enzyme label.)
As usually defined, the IC50 is the concentration that gives 50% inhibition. With `O=C(Nc1cccc2ncccc12)c1cc(OCCc2ccccn2)nc(N2CCOCC2)n1` [Compound 39, 2-Morpholin-4-yl-6-(2-pyridin-2-yl-ethoxy)-pyrimidine-4-carboxylic acid quinolin-5-ylamide], the IC50 was at least 1 µM. Next, `Cc1[nH]c2ccc(NC(=O)c3cc(NCC(=O)N(C)C)nc(N4CCOCC4)n3)cc2c1C` [Compound 112, 6-(Dimethylcarbamoylmethyl-amino)-2-morpholin-4-yl-pyrimidine-4-carboxylic acid (2,3-dimethyl-1H-indol-5-yl)-amide]: below 1 µM; `O=C(Nc1ccc2c(c1)OCO2)Nc1cc(N2CCOCC2)nc(OCCN2CCOCC2)n1` [Compound 123, 1-Benzo[1,3]dioxol-5-yl-3-[6-morpholin-4-yl-2-(2-morpholin-4-yl-ethoxy)-pyrimidin-4-yl]-urea]: at least 1 µM.

Take `CC(=O)Nc1ccccc1NC(=O)c1cc(OCCN2CCOCC2)nc(N2CCOCC2)n1` [Compound 49, 2-Morpholin-4-yl-6-(2-morpholin-4-yl-ethoxy)-pyrimidine-4-carboxylic acid (2-acetylamino-phenyl)-amide]: the concentration for half-maximal inhibition (IC50) was at least 1 µM. The figure for `Cc1[nH]c2ccc(NC(=O)c3cc(N(C)CC(=O)N4CCCCC4)nc(N4CCOCC4)n3)cc2c1C` [Compound 113, 6-[Methyl-(2-oxo-2-piperidin-1-yl-ethyl)-amino]-2-morpholin-4-yl-pyrimidine-4-carboxylic acid (2,3-dimethyl-1H-indol-5-yl)-amide] is below 1 µM; for `CCOc1cc(N2CCOCC2)c(OCC)cc1NC(=O)c1cc(N(C)CCOC)nc(N2CCOCC2)n1` [Compound 204, N-(2,5-diethoxy-4-morpholinophenyl)-6-((2-methoxyethyl)(methyl)amino)-2-morpholinopyrimidine-4-carboxamide] it is at least 1 µM; for `NC(=O)c1cccc(NC(=O)c2cc(N3CCOCC3)nc(N3CCOCC3)n2)c1` [Compound 52, 2,6-Di-morpholin-4-yl-pyrimidine-4-carboxylic acid (3-carbamoyl-phenyl)-amide] it is at least 1 µM. Next, `COCCOc1cc(C(=O)Nc2ccc3[nH]c(C)c(C)c3c2)nc(N2CCOCC2)n1` [Compound 301, 6-(2-Methoxy-ethoxy)-2-morpholin-4-yl-pyrimidine-4-carboxylic acid (2,3-dimethyl-1H-indol-5-yl)-amide]: below 1 µM. For the compound `Cc1c(C)n(C)c2ccc(NC(=O)c3cc(OCCN4CCOCC4)nc(N4CCOCC4)n3)cc12` [Compound 24, 2-Morpholin-4-yl-6-(2-morpholin-4-yl-ethoxy)-pyrimidine-4-carboxylic acid (1,2,3-trimethyl-1H-indol-5-yl)-amide], the IC50 was below 1 µM.

Take `NC(=O)c1cccc(NC(=O)c2cc(OCCN3CCOC3=O)nc(N3CCOCC3)n2)c1` [Compound 43, 2-Morpholin-4-yl-6-[2-(2-oxo-oxazolidin-3-yl)-ethoxy]-pyrimidine-4-carboxylic acid (3-carbamoyl-phenyl)-amide]: the IC50 is at least 1 µM.

With `CN(CCO)c1cc(NC(=O)Nc2ccc3[nH]c4c(c3c2)CCCC4)nc(N2CCOCC2)n1` [Compound 326, 1-{6-[(2-Hydroxy-ethyl)-methyl-amino]-2-morpholin-4-yl-pyrimidin-4-yl}-3-(6,7,8,9-tetrahydro-5H-carbazol-3-yl)-urea], the IC50 is below 1 µM.

As to `O=C(Nc1nnc(C2CC2)s1)c1cc(OCCN2CCOCC2)nc(N2CCOCC2)n1` [Compound 163, 2-Morpholin-4-yl-6-(2-morpholin-4-yl-ethoxy)-pyrimidine-4-carboxylic acid (5-cyclopropyl-[1,3,4]thiadiazol-2-yl)-amide], the IC50 is at least 1 µM. The figure for `CN(CCO)c1cc(C(=O)Nc2cccc(-n3cccn3)c2)nc(N2CCOCC2)n1` [Compound 315, 6-[(2-Hydroxy-ethyl)-methyl-amino]-2-morpholin-4-yl-pyrimidine-4-carboxylic acid (3-pyrazol-1-yl-phenyl)-amide] is below 1 µM; for `Cn1c(=O)oc2ccc(NC(=O)c3cc(OCCN4CCOCC4)nc(N4CCOCC4)n3)cc21` [Compound 218, N-(3-methyl-2-oxo-2,3-dihydrobenzo[d]oxazol-5-yl)-2-morpholino-6-(2-morpholinoethoxy)pyrimidine-4-carboxamide] it is below 1 µM. The figure for `O=C(Nc1cc(OCCN2CCOCC2)nc(N2CCOCC2)n1)Nc1ccccc1Cl` [Compound 132, 1-(2-Chloro-phenyl)-3-[2-morpholin-4-yl-6-(2-morpholin-4-yl-ethoxy)-pyrimidin-4-yl]-urea] is below 1 µM; for `CCN(CC)c1cc(C(=O)Nc2ccc3[nH]c(C)c(C)c3c2)nc(N2CCOCC2)n1` [Compound 93, 6-Diethylamino-2-morpholin-4-yl-pyrimidine-4-carboxylic acid (2,3-dimethyl-1H-indol-5-yl)-amide] it is below 1 µM; for `CC(C)c1cccc(NC(=O)Nc2cc(OCCN3CCOCC3)nc(N3CCOCC3)n2)c1` [Compound 330, 1-(3-Isopropyl-phenyl)-3-[2-morpholin-4-yl-6-(2-morpholin-4-yl-ethoxy)-pyrimidin-4-yl]-urea] it is below 1 µM.

As to `O=C(Nc1ccc2[nH]c3c(c2c1)CCCC3)c1cc(OCCc2cccc[n+]2[O-])nc(N2CCOCC2)n1` [Compound 322, 2-Morpholin-4-yl-6-[2-(1-oxy-pyridin-2-yl)-ethoxy]-pyrimidine-4-carboxylic acid (6,7,8,9-tetrahydro-5H-carbazol-3-yl)-amide], the IC50 is below 1 µM. Turning to `CNc1cc(NC(=O)c2cc(OCCN3CCOCC3)nc(N3CCOCC3)n2)ccc1C` [Compound 291, 2-Morpholin-4-yl-6-(2-morpholin-4-yl-ethoxy)-pyrimidine-4-carboxylic acid (4-methyl-3-methylamino-phenyl)-amide], the IC50 is below 1 µM. Next, `COCCN(C)c1cc(C(=O)Nc2ccc3c(c2)CCN3C(C)=O)nc(N2CCOCC2)n1` [Compound 206, N-(1-acetylindolin-5-yl)-6-((2-methoxyethyl)(methyl)amino)-2-morpholinopyrimidine-4-carboxamide]: at least 1 µM; `O=C(Nc1ccc(Cl)c(Cl)c1)Nc1cc(N2CCOCC2)nc(OCCN2CCOCC2)n1` [Compound 119, 1-(3,4-Dichloro-phenyl)-3-[6-morpholin-4-yl-2-(2-morpholin-4-yl-ethoxy)-pyrimidin-4-yl]-urea]: at least 1 µM; `CONc1cc(C(=O)Nc2cccc(N(C)C)c2)nc(N2CCOCC2)n1` [Compound 196, N-(3-(dimethylamino)phenyl)-6-(methoxyamino)-2-morpholinopyrimidine-4-carboxamide]: below 1 µM. Next, `Cc1ccnc(NC(=O)c2cc(OCCc3ccccn3)nc(N3CCOCC3)n2)c1` [Compound 35, 2-Morpholin-4-yl-6-(2-pyridin-2-yl-ethoxy)-pyrimidine-4-carboxylic acid (4-methyl-pyridin-2-yl)-amide]: at least 1 µM. The figure for `O=C(Nc1cc(OCCN2CCOCC2)nc(N2CCOCC2)n1)Nc1ccccc1Br` [Compound 129, 1-(2-Bromo-phenyl)-3-[2-morpholin-4-yl-6-(2-morpholin-4-yl-ethoxy)-pyrimidin-4-yl]-urea] is at least 1 µM. Turning to `Cc1ccc(N)c(NC(=O)c2cc(OCCN3CCOCC3)nc(N3CCOCC3)n2)c1` [Compound 272, 2-Morpholin-4-yl-6-(2-morpholin-4-yl-ethoxy)-pyrimidine-4-carboxylic acid (2-amino-5-methyl-phenyl)-amide], the IC50 is at least 1 µM.

Turning to `O=C(Nc1ccc2ncsc2c1)c1cc(OCCc2ccccn2)nc(N2CCOCC2)n1` [Compound 36, 2-Morpholin-4-yl-6-(2-pyridin-2-yl-ethoxy)-pyrimidine-4-carboxylic acid benzothiazol-6-ylamide], the half-inhibitory concentration (IC50) is at least 1 µM. Next, `Cc1cccc(OC(=O)Nc2cc(N3CCOCC3)nc(OCCc3ccccn3)n2)c1` [Compound 88, [6-Morpholin-4-yl-2-(2-pyridin-2-yl-ethoxy)-pyrimidin-4-yl]-carbamic acid m-tolyl ester]: at least 1 µM. Next, `Cc1[nH]c2ccc(NC(=O)c3cc(N4CCC(O)CC4)cc(N4CCOCC4)n3)cc2c1C` [Compound 171, 4-Hydroxy-6′-morpholin-4-yl-3,4,5,6-tetrahydro-2H-[1,4′]bipyridinyl-2′-carboxylic acid (2,3-dimethyl-1H-indol-5-yl)-amide]: below 1 µM; `COc1cccc(NC(=O)c2cc(OCCN3CCOCC3)nc(N3CCOCC3)n2)c1` [Compound 279, 2-Morpholin-4-yl-6-(2-morpholin-4-yl-ethoxy)-pyrimidine-4-carboxylic acid (3-methoxy-phenyl)-amide]: at least 1 µM. For the compound `CN1CCCc2ccc(NC(=O)c3cc(OCCN4CCOCC4)nc(N4CCOCC4)n3)cc21` [Compound 317, 2-Morpholin-4-yl-6-(2-morpholin-4-yl-ethoxy)-pyrimidine-4-carboxylic acid (1-methyl-1,2,3,4-tetrahydro-quinolin-7-yl)-amide], the IC50 was below 1 µM. Next, `Cc1ccc(NC(=O)c2cc(OCCN3CCOCC3)nc(N3CCOCC3)n2)cc1C` [Compound 23, 2-Morpholin-4-yl-6-(2-morpholin-4-yl-ethoxy)-pyrimidine-4-carboxylic acid (3,4-dimethyl-phenyl)-amide]: below 1 µM. Next, `Cn1c(=O)sc2cc(NC(=O)Nc3cc(OCCN4CCOCC4)nc(N4CCOCC4)n3)ccc21` [Compound 133, 1-(3-Methyl-2-oxo-2,3-dihydro-benzothiazol-6-yl)-3-[2-morpholin-4-yl-6-(2-morpholin-4-yl-ethoxy)-pyrimidin-4-yl]-urea]: at least 1 µM; `Nc1cccc(NC(=O)c2cc(OCCN3CCOCC3)nc(N3CCOCC3)n2)c1` [Compound 277, 2-Morpholin-4-yl-6-(2-morpholin-4-yl-ethoxy)-pyrimidine-4-carboxylic acid (3-amino-phenyl)-amide]: below 1 µM.
